The record followed here is the NIST ThermoML archive (doi:10.1016/j.jct.2012.11.016).

For data set [1] the following is noted: 101.33 kPa, Liquid; for viscosity: Capillary tube (Ostwald / Ubbelohde) method; for mass density: Vibrating tube method.
The nature of data set [2]: refractive index (Na D-line) (dimensionless). The conditions noted are these: 101.33 kPa, Liquid, Standard Abbe refractometry.

As a reminder, the viscosity is the internal friction of a fluid under shear. The term mass density denotes the mass of a sample divided by its volume. By refractive index is commonly meant a measure of how strongly the sample bends light.

Numbers after ± are expanded uncertainties.

Regarding `OCCO` [1,2-ethanediol], the viscosity amounted to 16.87 ± 1.7 mPa·s in data set [1] (298.15 K), 13.59 ± 1.4 mPa·s in data set [1] (303.15 K) and 11.34 ± 1.1 mPa·s in data set [1] (308.15 K). Further, the mass density in data set [1] (303.15 K) was found to be 1106 ± 1.1 kg/m3.
`OCCCO` [propan-1,3-diol]: the values for the viscosity in data set [1] (298.15 K), in data set [1] (303.15 K) and in data set [1] (308.15 K) were 41.36 ± 4.2 mPa·s, 32.78 ± 3.3 mPa·s and 27 ± 2.7 mPa·s, respectively. In addition, the mass density is listed as 1049.6 ± 0.9 kg/m3 in data set [1] (298.15 K), 1046.2 ± 0.9 kg/m3 in data set [1] (303.15 K) and 1043.1 ± 0.9 kg/m3 in data set [1] (308.15 K).
With `O` [water], the viscosity in data set [1] (298.15 K) is on record as 0.806 ± 0.081 mPa·s; in data set [1] (303.15 K), 0.728 ± 0.073 mPa·s; in data set [1] (308.15 K), 0.661 ± 0.066 mPa·s. In addition, the mass density came to 995.4 ± 0.3 kg/m3 in data set [1] (303.15 K) and 993.7 ± 0.3 kg/m3 in data set [1] (308.15 K). In addition, the figures for the refractive index in data set [2] (298.15 K), in data set [2] (303.15 K) and in data set [2] (308.15 K) were 1.3326 ± 0.0005, 1.3321 ± 0.0005 and 1.3315 ± 0.0005, respectively.
As for `OCCCCO` [1,4-butanediol], the viscosity in data set [1] (298.15 K) amounted to 72.33 ± 7.3 mPa·s; in data set [1] (303.15 K), 56.43 ± 5.7 mPa·s; in data set [1] (308.15 K), 44.11 ± 4.5 mPa·s. Besides, the mass density in data set [1] (298.15 K) came to 1013.9 ± 0.9 kg/m3; in data set [1] (303.15 K), 1010.6 ± 0.9 kg/m3; in data set [1] (308.15 K) it was 1007.5 ± 0.9 kg/m3.
